Measured values as given in patent US10238676B2, “Application of ginsenoside RG3 in preparing medicine for preventing and/or treating dementia, and medicine for treating dementia” (priority 2013, dated 2019).

Tests used:
Type in all cases: in vivo, human
[1] = tested on: patients with Alzheimer's disease; test: Revised Hasegawa dementia scale (HDS-R) scoring of patients with Alzheimer's disease
Protocol: (§1) Both groups take medicine for 12 continuous weeks. 2 ml of cerebrospinal fluid is collected by lumbar puncture, and is stored at −80° C., the β-amyloid protein (Aβ) content is determined by using enzyme-linked immunosorbent assay (ELISA). A revised Hasegawa dementia scale (HDS-R) is used to score, and the scores before and after treatment are compared, increasing in scores means validness, and unchanging or decreasing in scores means invalidness. The enumeration data adopts χ^2 test, the comparison of measurement data adopts t-test, all data is processed by adopting SPSS12.0 statistical software.
Analysis on the clinical therapeutic effect of the two groups.

[2] = tested on: β-amyloid protein (Aβ); test: Cerebrospinal fluid β-amyloid protein content (ELISA) of patients with Alzheimer's disease; conditions: AD inpatients
Protocol: as §1, with “2” for “Both groups take medicine for 12 continuous weeks. 2”

[3] = tested on: patients with mild or moderate Alzheimer's disease; test: Placebo-controlled clinical research, MMSE/CDR/ADL, mild or moderate Alzheimer's disease (Test Example 4)
Source text: 89 patients with mild or moderate Alzheimer's disease are divided into two groups randomly, one of which take ginsenoside Rg3, and the other placebos. There are 46 patients in the group taking Rg3, with 21 male and 25 female, aged from 58 to 87 (72.6±6.8), scoring from 10 to 24 (17.8±2.3) points in the mini-mental state examination (MMSE); there are 43 patients taking placebos, with 19 male and 24 female aged from 57 to 88 (71.8±8.2), scoring from 10 to 24 (18.2±2.7) points in MMSE. There are no obvious differences between the ginsenoside Rg3 group and the placebo group with respect to gender, age and MMSE scores. The patents in the group taking ginsenoside Rg3 use the ginsenoside Rg3 naristillae once a day for 12 continuous weeks, with 10 mg/ml for each time.
For the patients taking placebos, except that what is used for intranasal administration are placebos, the rest is conducted according to the same administration method as that adopted by those taking ginsenoside Rg3.
The ginsenoside Rg3 naristillae has a concentration of 10 mg/ml, and colors, characters, tastes and dosages of the placebos are the same as those of the ginsenoside Rg3 naristillae. The ginsenoside Rg3 naristillae and the placebos are applied once a day for 12 continuous weeks. Examination is conducted once every four weeks before and after medication, and the examination method is as follows:
(1) MMSE Screening of AD: examining patients' cognitive functions (orientation, memory, computational power, language competence, ability in applying visual-spatial segment etc.; (2) Examining patents' dementia degrees using the clinical dementia rating (CDR); (3) Examining patents' activities of daily living using the activity of daily living scale (ADL).
SPSS statistical software is adopted for examination results. T-test is adopted before and after treatment, and it is also adopted for the ginsenoside Rg3 naristillae group and the placebo control group. For scoring results of MMSE, CDR and ADL of patients with AD before treatment, see table 5

[4] = of 18 patients per group, 12 weeks
[5] = 46 AD patients, Rg3 naristillae 10 mg/ml intranasal once a day

## CC(C)=CCC[C@](C)(O)[C@H]1CC[C@]2(C)[C@@H]1[C@H](O)C[C@@H]1[C@@]3(C)CC[C@H](O[C@@H]4O[C@H](CO)[C@@H](O)[C@H](O)[C@H]4O[C@@H]4O[C@H](CO)[C@@H](O)[C@H](O)[C@H]4O)C(C)(C)[C@@H]3CC[C@]12C [Ginsenoside Rg3, 20(R)-ginsenoside Rg3]
[1]; 18 AD patients per group, Rg3 oral liquid 10 mg/d or donepezil 5 mg/d, 12 weeks
  effective rate (patients increased in HDS-R scores): 77.8%
[1]; AD inpatients, n = 18, Rg3 oral liquid 10 mg/d or donepezil 5 mg/d orally, 12 weeks
  Scores of clinical symptom (HDS-R), post treatment: 18.7 ± 8.1^#Δ
[1]; AD inpatients, n = 18 per group, baseline
  Scores of clinical symptom (HDS-R), before treatment: 12.3 ± 5.2
[1]; [4]
  number of patients constant in scores: 3
  number of patients decreased in scores: 1
  number of patients increased in scores of clinical symptom: 14
[2]; n = 18, Rg3 oral liquid 10 mg/d or donepezil 5 mg/d orally, 12 weeks
  Aβ content in cerebrospinal fluid, post treatment: 3.8 ± 1.5
[2]; n = 18 per group, baseline
  Aβ content in cerebrospinal fluid, before treatment: 5.9 ± 2.6
[3]; 46 AD patients, baseline
  ADL score before treatment: 47.2 ± 7.9 points
  CDR score before treatment: 1.9 ± 0.3 points
  MMSE score before treatment: 17.8 ± 2.3 points
[3]; [5]
  ADL score after treatment for 12 weeks: 40.5 ± 7.6 points
  CDR score after treatment for 12 weeks: 1.2 ± 0.2 points
[3]; 46 AD patients, Rg3 naristillae (embodiment 29) 10 mg/ml intranasal once a day
  MMSE score after treatment for 12 weeks: 24.1 ± 2.0 points
[3]; Test Example 4, Rg3 naristillae, 12 weeks
  decrease of ADL score after treatment compared with before treatment: 7.1 points
